In the assay the target is T1, CB1 receptor (Homo sapiens, UniProt P21554).
T1 construct: expressed in transfected cells
Kind of assay: [35S]-GTPγS binding assay on membranes from cells stably transfected with the CB1 gene, inhibition of CP55940 (EC80) stimulated binding. Format: biochemical. The conditions noted are these: concentration giving half maximal inhibition of GTPγS binding; EC80 of agonist CP55940. The method, then:
10 μg of membranes prepared from cells stably transfected with the CB1 gene were suspended in 200 μl of 100 mM NaCl, 5 mM MgCl2, 1 mM EDTA, 50 mM HEPES (pH 7.4), 1 mM DTT, 0.1% BSA and 100 μM GDP. To this was added an EC80 concentration of agonist (CP55940), the required concentration of test compound and 0.1 μCi [^35S]-GTPγS. The reaction was allowed to proceed at 30° C. for 45 min. Samples were then transferred on to GF/B filters using a cell harvester and washed with wash buffer (50 mM Tris (pH 7.4), 5 mM MgCl2, […]). Filters were then covered with scintillant and counted for the amount of [^35S]-GTPγS retained by the filter.
Activity is measured in the absence of all ligands (minimum activity) or in the presence of an EC80 concentration of CP55940 (maximum activity). These activities are set as 0% and 100% activity respectively. At various concentrations of novel ligand, activity is calculated as a percentage of the maximum activity and plotted. The data are fitted using the equation y=A+((B−A)/1+((C/x)UD)) and the IC50 value determined as the concentration required to give half maximal inhibition of GTPγS binding under the conditions used.
A general note: Binding of GTPγS marks nucleotide exchange on a G protein.

T1 sequence (P21554 whole entry): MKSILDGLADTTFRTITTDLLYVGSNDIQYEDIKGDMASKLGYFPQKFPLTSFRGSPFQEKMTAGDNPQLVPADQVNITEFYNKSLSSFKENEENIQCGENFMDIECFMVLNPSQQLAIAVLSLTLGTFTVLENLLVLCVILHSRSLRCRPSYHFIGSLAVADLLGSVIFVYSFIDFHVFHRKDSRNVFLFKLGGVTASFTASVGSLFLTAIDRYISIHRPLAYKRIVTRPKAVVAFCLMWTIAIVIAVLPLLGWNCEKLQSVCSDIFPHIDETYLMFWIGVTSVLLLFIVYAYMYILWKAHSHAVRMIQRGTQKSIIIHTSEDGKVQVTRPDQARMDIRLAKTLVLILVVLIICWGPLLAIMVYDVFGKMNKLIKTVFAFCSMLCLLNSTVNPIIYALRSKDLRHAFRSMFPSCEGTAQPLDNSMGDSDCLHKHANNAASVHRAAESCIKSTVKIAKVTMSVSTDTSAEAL

A word on the IC50: it is the midpoint of a concentration-inhibition curve. High values mean lower potency, low ones higher potency. `Cc1ccc(NC(=O)c2nn(-c3ccc(Cl)cc3Cl)c(-c3ccc(OS(=O)(=O)CCC(F)(F)F)cc3)c2C)nc1` [Example 10, 3,3,3-Trifluoro-propane-1-sulfonic acid 4-[2-(2,4-dichlorophenyl)-4-methyl-5-(5-methyl-pyridin-2-ylcarbamoyl)-2H-pyrazol-3-yl]phenyl ester]: the IC50 amounted to 1.95 nM. That is a single-digit nanomolar value.

Values taken from patent publication US20080287517A1, “Pyrazole Derivatives as Cb1 Modulators” (priority 2005, published 2008).
